The values that follow come from PMC5547389, “Structure-activity relationships and molecular docking studies of chromene and chromene based azo chromophores: A novel series of potent antimicrobial and anticancer agents” (EXCLI Journal, 2017).

The subject of data set [1] is HCT-116, MCF-7, HEPG-2. The data set is described as follows: Cytotoxic screening, statements over the three cell lines. The class given is cell-based. The following applies: Homo sapiens; HCT-116, MCF-7, HEPG-2 together; read-out: IC50, range over the three cell lines. The protocol:
Human colon carcinoma (HCT-116), human hepatocellular carcinoma (HEPG-2), adenocarcinomic human alveolar basal epithelial cell (A-549), and human breast adenocarcinoma (MCF-7) cell lines were obtained from the American Type Culture Collection (ATCC, Rockville, MD). The cells were grown on RPMI-1640 medium supplemented with 10 % inactivated fetal calf serum and 50 µg/ml gentamycin. The cells were maintained at 37 °C in a humidified atmosphere with 5 % CO2 and were subcultured two to three times a week. Potential cytotoxicity of the compounds was evaluated on tumor cells using the method of Gangadevi and Muthumary (2007[21]) (Klancnik et al., 2010[36]). The cells were grown as monolayers in growth RPMI-1640. The monolayers of 104 cells adhered at the bottom of the wells in a 96-well microtiter plate incubated for 24 h at 37 °C in a humidified incubator with 5 % CO2. The monolayers were then washed with sterile phosphate buffered saline (0.01 M pH 7.2) and simultaneously the cells were treated with 100 µL from different dilutions of tested sample in fresh maintenance medium and incubated at 37 °C. A control of untreated cells was made in the absence of tested sample. Positive controls containing doxorubicin were also tested as a reference drug for comparison. Six wells were used for each concentration of the test sample. Every 24 hours an observation under the inverted microscope was made. The number of the surviving cells was determined by staining the cells with crystal violet (Mosmann, 1983[42]; Gangadevi and Muthumary, 2007[21]) followed by cell lysing using 33 % glacial acetic acid and reading the absorbance at 590 nm using microplate reader (SunRise, TECAN, Inc, USA) after well mixing. The absorbance values from untreated cells were considered as 100 % proliferation. The number of viable cells was determined using microplate reader as previously mentioned before and the percentage of […] was calculated as [1-(ODt/ODc)] x 100 % where ODt is the mean optical density of wells treated with the tested sample and ODc is the mean optical density of untreated cells. The relation between surviving cells and drug concentration was plotted to get the survival curve of each tumor cell line after treatment with the specified compound. The 50 % inhibitory concentration (IC50), the concentration required to cause toxic effects in 50 % of intact cells, was estimated from graphic plots.
The in vitro cytotoxic activity was performed by MTT assay (Mosmann, 1983[42]; Alley et al., 1988[6]) against three human carcinoma cell lines: Human colon carcinoma (HCT-116), human breast adenocarcinoma (MCF-7), and human hepatocellular carcinoma (HEPG-2).

Data set [2] deals with human breast adenocarcinoma (MCF-7). The data set is described as follows: Cytotoxic screening. Particulars: Homo sapiens, MCF7; read-out: IC50 MCF-7. It is filed as cell-based. The method in brief: (§1)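 Read-out is crystal violet staining (the text also names MTT), lysis in 33 % acetic acid, A590, with untreated cells as 100 %. IC50 was estimated graphically from survival curves.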

The subject of data set [3] is Human colon carcinoma (HCT-116). The data set is described as follows: Cytotoxic screening. It is filed as cell-based. Particulars: Homo sapiens, HCT-116; read-out: IC50 HCT-116. The method in brief:
as §1

Data set [4] concerns human hepatocellular carcinoma (HEPG-2). The data set is described as follows: Cytotoxic screening. It is filed as cell-based. The following applies: HepG2, read-out: IC50 HepG-2. In outline: as §1
In data set [5] the test system is primary mixed neuronal in vitro culture. The data set is described as follows: Acute toxicity, LDH release. The class given is cell-based, rat. On the procedure: In vitro experiments were carried out at the University of Prince Edward Island and approved by the Animal Care and Biosafety Committees, which adheres to the guidelines of the Canadian Council on Animal Care (protocol #14-041 and 15-028). Mixed neocortical cultures, containing both neurons and glia, were prepared from fetal rats at 17-18 days gestation. Briefly, embryonic tissue was extracted from untimed pregnant Sprague-Dawley rats by caesarean section and transferred to ice-cold Hanks Balanced Salt Solution (Gibco). Cortical brain tissue was carefully isolated by fine dissection using aseptic techniques. Cortices were minced in cold HBSS using a sterile razor blade prior to digestion with 0.0125 % trypsin. Dissociated cells were plated in poly-L-lysine (1 mg/ml, Sigma Aldrich) coated 96 well plates at a seeding density of 50000 cells/well in warm (37 °C) Dulbecco's Modified Eagle Medium (Gibco) containing 10 % iron-supplemented bovine calf serum (Hyclone) and 1 % antibiotic/antimycotic (Gibco). Cultures were allowed to adhere overnight in a humidified 37 °C incubator having 5 % CO2 and atmospheric oxygen. The following day, the media was replaced with warmed Neurobasal A Medium (Gibco) containing 0.5 mM L-glutamine (Gibco) and supplemented with 1 % B27, N2 and antibiotic/antimycotic (Gibco). Half-volume media changes were made every 4 days thereafter with experiments being carried out on 14-16 day old cultures. After 14 days in culture, the medium was replaced with deoxygenated unsupplemented glucose-free Neurobasal A containing either 10 or 100 µM of the novel compounds T3, T4, T5, T8, T9, T11, or T12. Control wells contained glucose-free medium plus vehicle - either 0.1 % ethanol or 0.1 % DMSO. Cultures were transferred to a humidified 37 °C incubator having 5 % CO2, 1.1 % O2 and the balance N2 for a period of 24 hours. Following OGD, an equal volume of normal supplemented Neurobasal A containing identical drug concentrations was added and cultures were transferred to normoxic conditions (5 % CO2 and atmospheric oxygen) for an additional 24 h. Cell viability was assessed by measuring LDH release from damaged cells. Control cultures were prepared in separate plates having supplemented Neurobasal A and being maintained in 5 % CO2 and atmospheric oxygen for the duration of the experiment. Toxicity was assessed in wells treated with 10 µM of each of the test compounds listed above. After 24 h an equal volume of culture media as added to each well to account for handling effects on experimental outcomes. Toxicity was assessed after an additional 24 h in culture by measuring LDH release from treated cells. At the end of each experiment, cell injury was assessed by measuring lactate dehydrogenase (LDH) released from damaged cells into the culture medium (Cytoscan LDH Assay, G Biosciences). LDH measurements represent the average of 7 replicate treatments/dose. The effect of OGD and drug treatments on LDH was expressed as a percent of LDH release compared to OGD and vehicle groups. […]
Lactate dehydrogenase (LDH) release in the medium is an enzymatic indicator that illustrates the loss of membrane integrity, apoptosis, or necrosis of a cell. Using a primary mixed neuronal in vitro culture, the cytotoxic effect of the chromene-based compounds (4a, 4c, 7c, 12c, 12k, 13g, and 13h) was assessed by lactate dehydrogenase (LDH) release from cells pretreated with different concentrations after 24 and 48 h of incubation (Figure 9A-C(Fig. 9)). […]

Values after ≈ are worked out from the molar mass of the structure shown.

Compound `N#CC1=C(N)Oc2c(N)cc3ccccc3c2C1c1ccc(F)cc1` (centres unmarked) [4a, 3,5-diamino-1-(4-fluorophenyl)-1H-benzo[f]chromene-2-carbonitrile] registered a melting point of 193 °C. For the same compound, in data set [1], the IC50 lay within 0.3 to 2 µg/mL (≈ 0.905 to 6.04 µM). Besides, the IC50 in data set [2] stood at 1 µg/mL (≈ 3.02 µM). In addition, the IC50 in data set [3] was 1 µg/mL (≈ 3.02 µM). Moreover, the IC50 in data set [4] came out at 0.3 µg/mL (≈ 0.905 µM). Moreover, in data set [5] (10 µM, 24 hrs of incubation), the “LDH release more than vehicle” value was 2-3 folds.
With `N#CC1=C(N)Oc2c(N)cc3ccccc3c2C1c1ccc(Cl)cc1` (centres unmarked) [4b, 3,5-diamino-1-(4-chlorophenyl)-1H-benzo[f]chromene-2-carbonitrile], the melting point was 187 °C. Also, the IC50 in data set [1] is 0.3 to 2 µg/mL (≈ 0.863 to 5.75 µM). Besides, the IC50 in data set [2] turned out to be 1 µg/mL (≈ 2.88 µM). Also, the IC50 in data set [3] stood at 1.1 µg/mL (≈ 3.16 µM). Also, in data set [4], the IC50 was found to be 1 µg/mL (≈ 2.88 µM).
Compound `Cc1ccc(C2C(C#N)=C(N)Oc3c(N)cc4ccccc4c32)cc1` (centres unmarked) [4c, 3,5-diamino-1-(p-tolyl)-1H-benzo[f]chromene-2-carbonitrile] yielded a melting point of 180 °C. Further, the IC50 in data set [1] was 0.3 to 2 µg/mL (≈ 0.916 to 6.11 µM). Besides, the IC50 in data set [2] amounted to 0.8 µg/mL (≈ 2.44 µM). Further, the IC50 in data set [3] was found to be 1.1 µg/mL (≈ 3.36 µM). Also, in data set [4], the IC50 was determined as 0.3 µg/mL (≈ 0.916 µM). Moreover, in data set [5] (10 µM, 24 hrs of incubation), the “LDH release” value is “reduced the LDH release”. The “LDH release” value in data set [5] (100 µM, 24 hrs) is listed as “ineffective”.
In the case of `N#CC1=C(N)Oc2c(ccc3c(N)cccc23)C1c1ccc(F)cc1` (centres unmarked) [7c], the IC50 in data set [1] is 0.3 to 2 µg/mL (≈ 0.905 to 6.04 µM); in data set [2], 1.4 µg/mL (≈ 4.23 µM); in data set [3], 2 µg/mL (≈ 6.04 µM); in data set [4], 0.7 µg/mL (≈ 2.11 µM). Also, the “LDH release more than vehicle” value in data set [5] (10 µM, 24 hrs of incubation) is 2-3 folds. For the same compound, the “LDH release” value in data set [5] (100 µM, 24 hrs) was “more LDH release compared to the vehicle”.
With `COc1ccc(N=Nc2cc3c(cc2O)OC(N)=C(C#N)C3c2ccc(F)cc2)cc1` (centres unmarked) [13b, 2-Amino-4-(4-fluoro-phenyl)-7-hydroxy-6-(4-methoxy-phenylazo)-4H-chromene-3-carbonitrile], the melting point stood at 272 °C. The IC50 in data set [1] was in the range of 2.41 to 5.4 µg/mL (≈ 5.79 to 13 µM). Further, the IC50 in data set [2] was determined as 3.78 µg/mL (≈ 9.08 µM). Besides, in data set [3], the IC50 turned out to be 2.41 µg/mL (≈ 5.79 µM). Also, the IC50 in data set [4] stood at 5.4 µg/mL (≈ 13 µM).
